Measurements from patent US6608082B1, “Treatment of erectile dysfunction using isoquinoline compound melanocortin receptor ligands” (Lion Bioscience AG, priority 1998, dated 2003).

How the values were obtained:
MCR-1 = target: T1, MCR-1 (Homo sapiens, UniProt Q01726); test: Melanocortin receptor binding assay, competition with 125I-HP 467, HEK 293 cells expressing hMCR-1; conditions: inhibition of binding of 125I-HP 467, HEK 293 cells expressing MCR-1; read-out: MC-1 IC50
T1 construct: expressed in transfected cells; host or cells: HEK 293
How it was run: (§1)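 Intact-cell competition binding, 2.5 hr at 37 °C, in PBS/10% calf serum/1 mM CaCl2; hMCR-4 cells at 4×10^3 per tube, hMCR-1 cells at 2×10^4 per tube. Filtration on BSA/CaCl2-soaked GF/B, cold 50 mM Tris pH 7.4 washes, scintillation count.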

MCR-4 = target: T2, MCR-4 (Homo sapiens, UniProt P32245); test: Melanocortin receptor binding assay, competition with 125I-HP 467, HEK 293 cells expressing hMCR-4; conditions: inhibition of binding of 125I-HP 467, HEK 293 cells expressing MCR-4; read-out: MC-4 IC50
T2 construct: expressed in transfected cells; host or cells: HEK 293
How it was run: as §1

T2 sequence (P32245 whole entry): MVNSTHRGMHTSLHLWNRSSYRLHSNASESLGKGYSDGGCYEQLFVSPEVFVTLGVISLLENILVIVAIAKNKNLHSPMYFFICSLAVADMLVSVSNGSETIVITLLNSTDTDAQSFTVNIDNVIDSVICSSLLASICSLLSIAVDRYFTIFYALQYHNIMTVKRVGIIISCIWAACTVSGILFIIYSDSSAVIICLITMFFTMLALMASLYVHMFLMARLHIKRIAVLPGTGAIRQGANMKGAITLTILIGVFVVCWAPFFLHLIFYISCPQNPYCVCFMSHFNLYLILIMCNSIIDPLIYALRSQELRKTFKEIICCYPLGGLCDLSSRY
T1 sequence (Q01726 whole entry): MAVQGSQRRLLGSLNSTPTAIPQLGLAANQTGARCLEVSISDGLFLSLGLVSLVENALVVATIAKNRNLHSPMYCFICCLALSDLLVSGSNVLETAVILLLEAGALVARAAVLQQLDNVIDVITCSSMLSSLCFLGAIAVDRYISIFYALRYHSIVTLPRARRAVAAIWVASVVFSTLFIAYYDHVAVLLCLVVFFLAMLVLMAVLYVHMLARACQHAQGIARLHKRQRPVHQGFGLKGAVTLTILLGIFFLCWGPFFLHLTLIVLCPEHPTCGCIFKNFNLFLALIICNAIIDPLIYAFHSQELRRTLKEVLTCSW

SMILES	IC50 (MCR-1)	IC50 (MCR-4)
COc1ccc(CNC(CN)CCCCN2Cc3ccccc3C(CNCCc3ccccc3)C2c2cc(C(F)(F)F)cc(C(F)(F)F)c2)cc1 (stereo not drawn) [TRG 2421-4]	2.57 µM	2810 nM
NCC(CCCCN1Cc2ccccc2C(CNCCc2ccccc2)C1c1cc(C(F)(F)F)cc(C(F)(F)F)c1)NCc1ccc(-c2ccccc2)cc1 (stereo not drawn) [TRG 2421-5]	11.2 µM	9410 nM
NCC(CCCCN1Cc2ccccc2C(CNCCc2ccc(O)cc2)C1c1cc(C(F)(F)F)cc(C(F)(F)F)c1)NCc1ccccc1 (stereo not drawn) [TRG 2421-6]	2.25 µM	760 nM
Cc1ccc(CNC(CN)CCCCN2Cc3ccccc3C(CNCCc3ccc(O)cc3)C2c2cc(C(F)(F)F)cc(C(F)(F)F)c2)cc1 (stereo not drawn) [TRG 2421-7]	3.19 µM	4530 nM
COc1ccc(CNC(CN)CCCCN2Cc3ccccc3C(CNCCc3ccc(O)cc3)C2c2cc(C(F)(F)F)cc(C(F)(F)F)c2)cc1 (stereo not drawn) [TRG 2421-9]	1.5 µM	1750 nM
NCC(CCCCN1Cc2ccccc2C(CNCCc2ccc(O)cc2)C1c1cc(C(F)(F)F)cc(C(F)(F)F)c1)NCc1ccc(-c2ccccc2)cc1 (stereo not drawn) [TRG 2421-10]	4.77 µM	9110 nM
COc1ccc(CCNCC2c3ccccc3CN(CCCCC(CN)NCc3ccc(C)cc3)C2c2cc(C(F)(F)F)cc(C(F)(F)F)c2)cc1 (stereo not drawn) [TRG 2421-12]	2.57 µM	1400 nM
COc1ccc(CCNCC2c3ccccc3CN(CCCCC(CN)NCc3ccc(Br)cc3)C2c2cc(C(F)(F)F)cc(C(F)(F)F)c2)cc1 (stereo not drawn) [TRG 2421-13]	4.41 µM	8110 nM
COc1ccc(CCNCC2c3ccccc3CN(CCCCC(CN)NCc3ccc(OC)cc3)C2c2cc(C(F)(F)F)cc(C(F)(F)F)c2)cc1 (stereo not drawn) [TRG 2421-14]	3.47 µM	1690 nM
COc1ccc(CCNCC2c3ccccc3CN(CCCCC(CN)NCc3ccc(-c4ccccc4)cc3)C2c2cc(C(F)(F)F)cc(C(F)(F)F)c2)cc1 (stereo not drawn) [TRG 2421-15]	7.81 µM	7600 nM
COc1ccc(CCNCC2c3ccccc3CN(CCCCC(CN)NCc3ccccc3)C2c2cc(C(F)(F)F)cc(C(F)(F)F)c2)cc1OC (stereo not drawn) [TRG 2421-16]	2.42 µM	360 nM
COc1ccc(CCNCC2c3ccccc3CN(CCCCC(CN)NCc3ccc(Br)cc3)C2c2cc(C(F)(F)F)cc(C(F)(F)F)c2)cc1OC (stereo not drawn) [TRG 2421-18]	4.79 µM	1350 nM
COc1ccc(CNC(CN)CCCCN2Cc3ccccc3C(CNCCc3ccc(OC)c(OC)c3)C2c2cc(C(F)(F)F)cc(C(F)(F)F)c2)cc1 (stereo not drawn) [TRG 2421-19]	1.63 µM	520 nM
COc1ccc(CCNCC2c3ccccc3CN(CCCCC(CN)NCc3ccc(-c4ccccc4)cc3)C2c2cc(C(F)(F)F)cc(C(F)(F)F)c2)cc1OC (stereo not drawn) [TRG 2421-20]	4.22 µM	1970 nM
CCOc1ccc(CCNCC2c3ccccc3CN(CCCCC(CN)NCc3ccccc3)C2c2cc(C(F)(F)F)cc(C(F)(F)F)c2)cc1 (stereo not drawn) [TRG 2421-21]	2.59 µM	3980 nM
CCOc1ccc(CCNCC2c3ccccc3CN(CCCCC(CN)NCc3ccc(C)cc3)C2c2cc(C(F)(F)F)cc(C(F)(F)F)c2)cc1 (stereo not drawn) [TRG 2421-22]	3.02 µM	8220 nM
CCOc1ccc(CCNCC2c3ccccc3CN(CCCCC(CN)NCc3ccc(Br)cc3)C2c2cc(C(F)(F)F)cc(C(F)(F)F)c2)cc1 (stereo not drawn) [TRG 2421-23]	7.44 µM	8220 nM
CCOc1ccc(CCNCC2c3ccccc3CN(CCCCC(CN)NCc3ccc(OC)cc3)C2c2cc(C(F)(F)F)cc(C(F)(F)F)c2)cc1 (stereo not drawn) [TRG 2421-24]	2.35 µM	2260 nM
CCOc1ccc(CCNCC2c3ccccc3CN(CCCCC(CN)NCc3ccc(-c4ccccc4)cc3)C2c2cc(C(F)(F)F)cc(C(F)(F)F)c2)cc1 (stereo not drawn) [TRG 2421-25]	10 µM	10900 nM
NCC(CCCCN1Cc2ccccc2C(CNCCc2ccc(Oc3ccccc3)cc2)C1c1cc(C(F)(F)F)cc(C(F)(F)F)c1)NCc1ccccc1 (stereo not drawn) [TRG 2421-26]	11.4 µM	12900 nM

SMILES	IC50 (MCR-1)	IC50 (MCR-4)
Cc1ccc(CNC(CN)CCCCN2Cc3ccccc3C(CNCCc3ccc(Oc4ccccc4)cc3)C2c2cc(C(F)(F)F)cc(C(F)(F)F)c2)cc1 (stereo not drawn) [TRG 2421-27]	7.26 µM	9260 nM
COc1ccc(CNC(CN)CCCCN2Cc3ccccc3C(CNCCc3ccc(Oc4ccccc4)cc3)C2c2cc(C(F)(F)F)cc(C(F)(F)F)c2)cc1 (stereo not drawn) [TRG 2421-29]	5.1 µM	7920 nM
NCC(CCCCN1Cc2ccccc2C(CNCCc2ccc(Cl)cc2)C1c1cc(C(F)(F)F)cc(C(F)(F)F)c1)NCc1ccccc1 (stereo not drawn) [TRG 2421-31]	5.9 µM	2770 nM
Cc1ccc(CNC(CN)CCCCN2Cc3ccccc3C(CNCCc3ccc(Cl)cc3)C2c2cc(C(F)(F)F)cc(C(F)(F)F)c2)cc1 (stereo not drawn) [TRG 2421-32]	5.77 µM	4150 nM
NCC(CCCCN1Cc2ccccc2C(CNCCc2ccc(Cl)cc2)C1c1cc(C(F)(F)F)cc(C(F)(F)F)c1)NCc1ccc(Br)cc1 (stereo not drawn) [TRG 2421-33]	6.93 µM	8360 nM
COc1ccc(CNC(CN)CCCCN2Cc3ccccc3C(CNCCc3ccc(Cl)cc3)C2c2cc(C(F)(F)F)cc(C(F)(F)F)c2)cc1 (stereo not drawn) [TRG 2421-34]	4.98 µM	2640 nM
COc1cccc(CCNCC2c3ccccc3CN(CCCCC(CN)NCc3ccccc3)C2c2cc(C(F)(F)F)cc(C(F)(F)F)c2)c1 (stereo not drawn) [TRG 2421-36]	3.99 µM	890 nM
COc1cccc(CCNCC2c3ccccc3CN(CCCCC(CN)NCc3ccc(C)cc3)C2c2cc(C(F)(F)F)cc(C(F)(F)F)c2)c1 (stereo not drawn) [TRG 2421-37]	3.08 µM	840 nM
COc1cccc(CCNCC2c3ccccc3CN(CCCCC(CN)NCc3ccc(Br)cc3)C2c2cc(C(F)(F)F)cc(C(F)(F)F)c2)c1 (stereo not drawn) [TRG 2421-38]	7.47 µM	1340 nM
COc1ccc(CNC(CN)CCCCN2Cc3ccccc3C(CNCCc3cccc(OC)c3)C2c2cc(C(F)(F)F)cc(C(F)(F)F)c2)cc1 (stereo not drawn) [TRG 2421-39]	3.3 µM	1040 nM
COc1cccc(CCNCC2c3ccccc3CN(CCCCC(CN)NCc3ccc(-c4ccccc4)cc3)C2c2cc(C(F)(F)F)cc(C(F)(F)F)c2)c1 (stereo not drawn) [TRG 2421-40]	12.1 µM	3980 nM
NCC(CCCCN1Cc2ccccc2C(CNCCc2ccccc2)C1c1cccc(C(F)(F)F)c1)NCc1ccccc1 (stereo not drawn) [TRG 2421-41]	2.51 µM	1720 nM
COc1ccc(CNC(CN)CCCCN2Cc3ccccc3C(CNCCc3ccccc3)C2c2cccc(C(F)(F)F)c2)cc1 (stereo not drawn) [TRG 2421-42]	2.15 µM	1720 nM
COc1ccc(CCNCC2c3ccccc3CN(CCCCC(CN)NCc3ccccc3)C2c2cccc(C(F)(F)F)c2)cc1 (stereo not drawn) [TRG 2421-43]	2.15 µM	1760 nM
COc1ccc(CCNCC2c3ccccc3CN(CCCCC(CN)NCc3ccc(OC)cc3)C2c2cccc(C(F)(F)F)c2)cc1 (stereo not drawn) [TRG 2421-44]	1.54 µM	1420 nM
CCOc1ccc(CCNCC2c3ccccc3CN(CCCCC(CN)NCc3ccccc3)C2c2cccc(C(F)(F)F)c2)cc1 (stereo not drawn) [TRG 2421-45]	0.98 µM	2730 nM
CCOc1ccc(CCNCC2c3ccccc3CN(CCCCC(CN)NCc3ccc(OC)cc3)C2c2cccc(C(F)(F)F)c2)cc1 (stereo not drawn) [TRG 2421-46]	1.58 µM	3610 nM
COc1cccc(CCNCC2c3ccccc3CN(CCCCC(CN)NCc3ccccc3)C2c2cccc(C(F)(F)F)c2)c1 (stereo not drawn) [TRG 2421-47]	2.71 µM	1370 nM
COc1ccc(CNC(CN)CCCCN2Cc3ccccc3C(CNCCc3cccc(OC)c3)C2c2cccc(C(F)(F)F)c2)cc1 (stereo not drawn) [TRG 2421-48]	1.74 µM	950 nM
